Assays:
[1] = tested on: dechlorinating bacteria known to convert PCE to ethene; experiment: Set D: Lactic Acid Solids, PCE dechlorination microcosms (kinetics, Relative Rate); type: cell-based, Dehalococcoides and Dehalobacter spp.
Text: Certain contaminated materials (or sites) may contain indigenous microbial communities that are sufficient for complete bioremediation of contaminants. For such sites, there is no need to add microbes unless the indigenous microbes are genetically deficient in achieving the desired clean-up goals. For those sites that are microbiologically limited, microorganisms may be added to the contaminated materials (or sites). In one embodiment, the inoculum may be a mixed culture of halo-respiring bacteria that have been enriched to reach an optimal cell density. These mixed cultures of halo-respiring bacteria may be typically obtained from sediment samples from rivers, streams or any waterways. More specifically, the inoculum used in the Examples was originated from a Sangamon River sediment sample (Lodge Park, Piatt County, Ill.) See, e.g., Brennan, R. A., Sanford, R. A. and […]. (2006). “Biodegradation of Tetrachloroethene by Chitin Fermentation Products in a Continuous Flow Column System.” Journal of Environ. Engr., June 665-673. […] Brennan, R. A., and Sanford, R. A. (2002). “Continuous steady-state method using Tenax for delivering tetrachloroethene to chlororespiring bacteria.” Appl. Environ. […] Using 16S rRNA gene-specific primers, both Dehalococcoides and Dehalobacter spp. were detected. […] For purpose of this disclosure, each bottle may be started with a certain amount of PCE. At subsequent times each bottle may be sampled for the degradation daughter products of PCE, namely trichloroethene (TCE), cis-dichloroethene (DCE), vinyl chloride (VC) and ethene, etc. […] The rate of degradation may be determined by calculating the number of pmoles of chloride ions removed from PCE and subsequently from the amounts of the daughter products generated. The calculation may be performed as follows: […] Next, the dechlorination rate may be determined for each bottle at each time by dividing the Chloride generated by the time (days). […] This ratio is called Relative Rate and is dimensionless. As shown in the Examples, a paired t-test has been conducted to calculate the probability that the Relative Rate of one group (i.e. with Nutrient) is greater than the other group (i.e. without Nutrient). The null hypothesis is that the underlying means of the two paired groups are equal. The Probability that one group has higher Relative Rates than the other group is shown in various tables in the Examples. […] Lactic Acid Solids is a mixture of lactic acid, oligimers of lactic acid and residual sugars. […] In addition, this set was used to characterize if and to what extent the Lactic Acid Solids was an efficacious electron donor for anaerobic bioremediation of contaminants in water.

[2] = tested on: dechlorinating bacteria known to convert PCE to ethene; experiment: Set D: Efficiency by COD Analysis; type: cell-based, Dehalococcoides and Dehalobacter spp.
Text: Efficiency may be defined as the percent of electron donor utilized for dechlorination, and may be calculated by dividing the pmoles of Chloride ion generated by the pmoles of electron donor consumed as measured by either Volatile Fatty Acid (VFA) analysis (Sets B, C, and G) or Chemical Oxygen Demand (COD) analysis (Set D and E). The Relative Efficiency of the electron donor utilization may be defined as the Efficiency of the Electron Donor divided by the Efficiency of the Lactate Control.
The COD analysis calculates the utilization of electron donor by measuring the starting COD and the final COD taking the difference and converting mg/L to pmoles of electrons. The pmoles of electrons used for dechlorination was determined from the calculated Chloride produced leading to an Efficiency and Relative Efficiency of electron donor utilization as compared to lactate.

For CC(O)C(=O)[O-].[Na+] (stereo not shown) [Lactate Control, sodium lactate], the “Cl^− Rate ± s.d.” value ([1]; 0 days) was 0.00 ± 0.00 µmol, the “Cl^− ± s.d.” value ([1]; 0 days) was 0.00 ± 0.00 µmol and the “DCE ± s.d.” value ([1]; 0 days) was 0.00 ± 0.00 µmol. For the same compound, the “Ethene ± s.d.” value ([1]; 0 days) was 0.00 ± 0.00 µmol, the “PCE ± s.d.” value ([1]; 0 days) was 19.54 ± 0.00 µmol and the “TCE ± s.d.” value ([1]; 0 days) was 0.00 ± 0.00 µmol. The “VC ± s.d.” value ([1]; 0 days) was 0.00 ± 0.00 µmol, the “Cl^− Rate ± s.d.” value ([1]; 22 days) was 2.64 ± 0.00 µmol and the “Cl^− ± s.d.” value ([1]; 22 days) was 58.02 ± 0.10 µmol. For the same compound, the “DCE ± s.d.” value ([1]; 22 days) was 10.02 ± 0.06 µmol, the “Ethene ± s.d.” value ([1]; 22 days) was 0.25 ± 0.07 µmol and the “PCE ± s.d.” value ([1]; 22 days) was 0.00 ± 0.00 µmol. For the same compound, the “TCE ± s.d.” value ([1]; 22 days) was 0.00 ± 0.00 µmol, the “VC ± s.d.” value ([1]; 22 days) was 0.10 ± 0.03 µmol and the “Cl^− Rate ± s.d.” value ([1]; 36 days) was 1.18 ± 0.01 µmol. The “Cl^− ± s.d.” value ([1]; 36 days) was 63.68 ± 0.46 µmol, the “DCE ± s.d.” value ([1]; 36 days) was 7.18 ± 0.26 µmol and the “Ethene ± s.d.” value ([1]; 36 days) was 0.23 ± 0.19 µmol. For the same compound, the “PCE ± s.d.” value ([1]; 36 days) was 0.00 ± 0.00 µmol, the “TCE ± s.d.” value ([1]; 36 days) was 0.01 ± 0.02 µmol and the “VC ± s.d.” value ([1]; 36 days) was 0.08 ± 0.01 µmol. For the same compound, the “Cl^− Rate ± s.d.” value ([1]; 50 days) was 1.29 ± 0.06 µmol, the “Cl^− ± s.d.” value ([1]; 50 days) was 64.63 ± 2.77 µmol and the “DCE ± s.d.” value ([1]; 50 days) was 4.98 ± 0.67 µmol. The “Ethene ± s.d.” value ([1]; 50 days) was 0.20 ± 0.09 µmol, the “PCE ± s.d.” value ([1]; 50 days) was 0.00 ± 0.00 µmol and the “TCE ± s.d.” value ([1]; 50 days) was 0.00 ± 0.00 µmol. For the same compound, the “VC ± s.d.” value ([1]; 50 days) was 3.57 ± 1.88 µmol, the “% of e^− used for dechlor.” value [2] was 7% and the Chloride ([2]; Efficiency by COD Analysis) was 64.63 µmol. The “Relative Efficiency” value ([2]; relative to Lactate Control) was 100%.

Reference: patent US10179355B2, “Bioremediation enhancing agents and methods of use” (JRW BIOREMEDIATION, LLC, priority 2007, dated 2019)
